Data published in patent US20240041976A1, “COMPOSITION AND USE” (priority 2020, published 2024).
No end group written: not given here.

Assays:
Assay in all cases: microbe, parasite or virus in culture
E. faecalis 3351 = assay type: cell-based, Enterococcus faecalis
Method: Antimicrobial activity was measured using the AAMP assay (Wiegand et al., 2008, Nat. Protoc., Vol. 3(2), p 163-175).
Synergy testing was done with a microtiter plate checkerboard assay as previously described (Orhan et al., 2005, J. Clin. Microbiol., Vol. 43(1), p 140-143). Briefly, equal amounts of antimicrobial A were applied on microtiter plate 1 in wells A1-H1 and then diluted two-fold to wells 2-12. Similarly, equal amounts of antimicrobial B were applied on microtiter plate 2 in wells A1-A12 and diluted two-fold in wells B-H. Volumes of 50 μl of antimicrobial A from each well of microtiter plate 1 were transferred into microtiter plate 3, except for wells H1-H12. Similarly, the same volumes were transferred from microtiter plate 2 into plate 3, except for wells A1-A8. A 100 μl volume of 25 times diluted ON bacterial culture of MRSA was transferred into each well of plate 3. A 50 μl volume of pure broth was added into each well in lines H1-H12 and A1-A8 which were used to estimate MIC values of pure substances (blank).
Antimicrobial activity was measured using the AAMP assay as described in Example 2.
Synergy testing was performed as in Example 2.

S. haemolyticus 4071 = conditions: for MIC of the component in combination: 4071
Method: (§1) Growth inhibition assays were performed in 96-well microtiter plates as described previously (Chi and Holo, 2018, supra). Briefly, 135 μl of TSB were dispensed in each well of a microtiter plate (according to the number of bacterial strains tested) except in the wells of the first row. The antimicrobials were diluted in TSB to working concentrations in a final volume of 285 μl and dispensed in the wells of the first row. The working concentrations were 100 μg/μl for garvicin KS, 10 μg/μl for micrococcin P1 and 1 mg/ml for penicillin G. From the first row, 150 μl of the antimicrobials were then serially diluted (two-fold dilutions) in a sequential fashion until the last row of the plate. Finally, 15 μl of a fresh O/N culture of each strain were added in the appropriate wells to reach a final volume of 150 μl in each well. The plates were then incubated at 37° C. for 24 h. The growth inhibition was expressed as minimum inhibitory concentration (MIC50), which refers to the minimum concentration of the antimicrobial needed to reduce at least 50% of the microbial growth compared to the untreated control. The MIC50 was assessed by optical density readings at 600 nm (O.D.600).
(§2) Synergistic interactions between antimicrobials were determined using the fractional inhibition concentration (FIC). The FIC values were calculated as follows: the sum of the FIC =FICa+FICb+FICc, where the FICa means MIC of A in combination/MIC of A alone, FICb means MIC of B in combination/MIC of B, and FICc means MIC of C in combination/MIC of C alone. Effects were considered as synergistic if FIC was ≤0.5 for two components mixture and ≤0.75 for three components mixture.
(§3) Bacteriocins and antimicrobial assays. […] These bacteriocins were all solubilized in 0.1% (vol/vol) trifluoracetic acid (TFA; Sigma-Aldrich). […] Cell growth inhibition assays and antimicrobial synergy determination was performed in line with Example 1.
(§4) To investigate whether there was synergy between the three bacteriocins (K1-EJ, GarKS and MP1), a checkboard antimicrobial assay was performed. The selected strains were treated for 5, 24 and 48 h with a range of concentrations of K1-EJ, GarKS and MP1 alone or in different combinations.

S. haemolyticus 4070 = conditions: for MIC of the component in combination: 4070
Method: as §1, §2, §3, §4

S. haemolyticus 4073 = conditions: for MIC of the component in combination: 4073
Method: as §1, §2, §3, §4

S. haemolyticus 4068 = conditions: for MIC of the component in combination: 4068
Method: as §1, §2, §3, §4

S. haemolyticus 4069 = conditions: for MIC of the component in combination: 4069
Method: as §1, §2, §3, §4

Sequence: MKFKFNPTGTIVKKLTQYEINWYKQQYGRYPWERPVA [Hybrid K1-EJ]
- MIC, single antimicrobial (E. faecalis 3351; 3351): >25 mg/L
- MIC of MP1 in comb. with the labelled antimicrobial (E. faecalis 3351; E. faecalis 3351): 5.6 mg/L
- MIC of the labelled antimicrobial in comb. with MP1 (E. faecalis 3351; E. faecalis 3351): 3 mg/L
- MIC (S. haemolyticus 4071; 4071, 5 h): 0.78 mg/L
- MIC (S. haemolyticus 4071; 4071, 24 h): >100 mg/L
- MIC (S. haemolyticus 4071; 4071, 48 h): >100 mg/L
- MIC of the component in combination (S. haemolyticus 4071; 5 h, K1-EJ + GarKS): 1.6 mg/L
- MIC of the component in combination (S. haemolyticus 4071; 5 h, K1-EJ + GarKS + MP1): 0.72 mg/L
- MIC of the component in combination (S. haemolyticus 4071; 5 h, K1-EJ + MP1): 0.42 mg/L
- MIC of the component in combination (S. haemolyticus 4071; 24 h, K1-EJ + GarKS): 12 mg/L
- MIC of the component in combination (S. haemolyticus 4071; 24 h, K1-EJ + GarKS + MP1): 1.6 mg/L
- MIC of the component in combination (S. haemolyticus 4071; 24 h, K1-EJ + MP1): 1.4 mg/L
- MIC of the component in combination (S. haemolyticus 4071; 48 h, K1-EJ + GarKS): 24 mg/L
- MIC of the component in combination (S. haemolyticus 4071; 48 h, K1-EJ + GarKS + MP1): 3.3 mg/L
- MIC of the component in combination (S. haemolyticus 4071; 48 h, K1-EJ + MP1): 3 mg/L
- MIC (S. haemolyticus 4070; 4070, 5 h): 0.78 mg/L
- MIC (S. haemolyticus 4070; 4070, 24 h): >100 mg/L
- MIC (S. haemolyticus 4070; 4070, 48 h): >100 mg/L
- MIC of the component in combination (S. haemolyticus 4070; 5 h, K1-EJ + GarKS): 0.72 mg/L
- MIC of the component in combination (S. haemolyticus 4070; 5 h, K1-EJ + GarKS + MP1): 0.32 mg/L
- MIC of the component in combination (S. haemolyticus 4070; 5 h, K1-EJ + MP1): 0.2 mg/L
- MIC of the component in combination (S. haemolyticus 4070; 24 h, K1-EJ + GarKS): 3.3 mg/L
- MIC of the component in combination (S. haemolyticus 4070; 24 h, K1-EJ + GarKS + MP1): 2.8 mg/L
- MIC of the component in combination (S. haemolyticus 4070; 24 h, K1-EJ + MP1): 2.8 mg/L
- MIC of the component in combination (S. haemolyticus 4070; 48 h, K1-EJ + GarKS): 6.3 mg/L
- MIC of the component in combination (S. haemolyticus 4070; 48 h, K1-EJ + GarKS + MP1): 5.8 mg/L
- MIC of the component in combination (S. haemolyticus 4070; 48 h, K1-EJ + MP1): 6 mg/L
- MIC (S. haemolyticus 4073; 4073, 5 h): 0.78 mg/L
- MIC (S. haemolyticus 4073; 4073, 24 h): >100 mg/L
- MIC (S. haemolyticus 4073; 4073, 48 h): >100 mg/L
- MIC of the component in combination (S. haemolyticus 4073; 5 h, K1-EJ + GarKS): 1.7 mg/L
- MIC of the component in combination (S. haemolyticus 4073; 5 h, K1-EJ + GarKS + MP1): 0.33 mg/L
- MIC of the component in combination (S. haemolyticus 4073; 5 h, K1-EJ + MP1): 0.2 mg/L
- MIC of the component in combination (S. haemolyticus 4073; 24 h, K1-EJ + GarKS): 6.3 mg/L
- MIC of the component in combination (S. haemolyticus 4073; 24 h, K1-EJ + GarKS + MP1): 0.78 mg/L
- MIC of the component in combination (S. haemolyticus 4073; 24 h, K1-EJ + MP1): 0.36 mg/L
- MIC of the component in combination (S. haemolyticus 4073; 48 h, K1-EJ + GarKS): 12 mg/L
- MIC of the component in combination (S. haemolyticus 4073; 48 h, K1-EJ + GarKS + MP1): 1.6 mg/L
- MIC of the component in combination (S. haemolyticus 4073; 48 h, K1-EJ + MP1): 0.85 mg/L
- MIC (S. haemolyticus 4068; 4068, 5 h): 0.78 mg/L
- MIC (S. haemolyticus 4068; 4068, 24 h): >100 mg/L
- MIC (S. haemolyticus 4068; 4068, 48 h): >100 mg/L
- MIC of the component in combination (S. haemolyticus 4068; 5 h, K1-EJ + GarKS): 0.83 mg/L
- MIC of the component in combination (S. haemolyticus 4068; 5 h, K1-EJ + GarKS + MP1): 0.32 mg/L
- MIC of the component in combination (S. haemolyticus 4068; 5 h, K1-EJ + MP1): 0.2 mg/L
- MIC of the component in combination (S. haemolyticus 4068; 24 h, K1-EJ + GarKS): 3.1 mg/L
- MIC of the component in combination (S. haemolyticus 4068; 24 h, K1-EJ + GarKS + MP1): 0.78 mg/L
- MIC of the component in combination (S. haemolyticus 4068; 24 h, K1-EJ + MP1): 0.78 mg/L
- MIC of the component in combination (S. haemolyticus 4068; 48 h, K1-EJ + GarKS): 6 mg/L
- MIC of the component in combination (S. haemolyticus 4068; 48 h, K1-EJ + GarKS + MP1): 2.8 mg/L
- MIC of the component in combination (S. haemolyticus 4068; 48 h, K1-EJ + MP1): 0.72 mg/L
- MIC (S. haemolyticus 4069; 4069, 5 h): 0.78 mg/L
- MIC (S. haemolyticus 4069; 4069, 24 h): 0.78 mg/L
- MIC (S. haemolyticus 4069; 4069, 48 h): >100 mg/L
- MIC of the component in combination (S. haemolyticus 4069; 5 h, K1-EJ + GarKS): 1.4 mg/L
- MIC of the component in combination (S. haemolyticus 4069; 5 h, K1-EJ + GarKS + MP1): 0.68 mg/L
- MIC of the component in combination (S. haemolyticus 4069; 5 h, K1-EJ + MP1): 1.5 mg/L
- MIC of the component in combination (S. haemolyticus 4069; 24 h, K1-EJ + GarKS): 6 mg/L
- MIC of the component in combination (S. haemolyticus 4069; 24 h, K1-EJ + GarKS + MP1): 3.3 mg/L
- MIC of the component in combination (S. haemolyticus 4069; 24 h, K1-EJ + MP1): 23 mg/L
- MIC of the component in combination (S. haemolyticus 4069; 48 h, K1-EJ + GarKS): 6.5 mg/L
- MIC of the component in combination (S. haemolyticus 4069; 48 h, K1-EJ + GarKS + MP1): 5.8 mg/L
- MIC of the component in combination (S. haemolyticus 4069; 48 h, K1-EJ + MP1): 48 mg/L
